Source: US6376710B2, “Amidine compounds and their use as pesticides” (Sumitomo Chemical Co., Ltd., priority 2000, dated 2002)
Where two headings read alike, the source gives them in different places.

Assays:
Assay type in all cases: in vivo
[1] = test system: German cockroach (Blattella germanica); assay: Test Example 2: treated filter paper with sucrose bait, German cockroach male adults, mortality; settings: 144 h
[2] = test system: house fly (Musca domeestica); assay: Test Example 3: treated filter paper with sucrose bait, house fly female adults, mortality; settings: 24 h
Experimental: On the bottom of a polyethylene cup of 5.5 cm in diameter was placed a filter paper of the same size, to which a water dilution (500 ppm) of each of the formulations obtained from present compounds 1, 2, 3, 4, 5, 6, 7, 8, 9, 10, 11, 12, 13, 14, 15, 16, 17, 18, 19, 20, 21, 25, 26, 27, 28, 29, 32, 33, 34, 35, 36, 37, 38, 39, 40, 41, 42, 43, 44, 45, 47, 51, 52, 53, 54, 55, 60, and 61 according to Formulation Example 1 was added dropwise in an amount of 0.7 ml, and the cup was uniformly charged with about 30 mg of sucrose as a bait. Ten female adults of house fly (Musca domeestica) were set free in each cup, which was then kept covered. After 1 day, their survival was examined to determine the mortality.

[3] = test system: common mosquito (Culex pipiens pallens); assay: Test Example 4: treated water, common mosquito final-instar larvae, mortality; settings: 192 h
[4] = water dilution (500 ppm) of flowable (Formulation Example 1), 0.7 ml on filter paper, male adults, after 6 days, read-out: mortality
[5] = active ingredient 3.5 ppm in ion-exchanged water (0.7 ml of 500 ppm dilution), final-instar larvae, after 8 days, read-out: mortality

Compound	mortality at 500 µg/mL [1] [%]	mortality at 500 µg/mL [2] [%]	mortality at 3.5 ppm [3] [%]	mortality at 500 µg/mL [1, 4] [%]	mortality at 500 µg/mL ([2]; water dilution (500 ppm) of flowable (Formulation Example 1), 0.7 ml on filter paper, female adults, after 1 day, read-out: mortality) [%]	mortality at 3.5 ppm [3, 5] [%]
NC(=Nc1c(Cl)cc(C(F)(F)F)cc1[N+](=O)[O-])C(F)(F)F [present compound 1, N-(2-chloro-6-nitro-4-trifluoromethylphenyl)-2,2,2-trifluoroacetamidine]	100	100				
NC(=Nc1c(F)cc(C(F)(F)F)cc1F)C(F)(F)F [present compound 2, N-(2,6-Difluoro-4-trifluoromethylphenyl)-2,2,2-trifluoroacetamidine]	100	100				
NC(=Nc1c(Cl)cc(C(F)(F)F)cc1Cl)C(F)(F)F [present compound 3, N-(2,6-Dichloro-4-trifluoromethylphenyl)-2,2,2-trifluoroacetamidine]	100	100	100			
NC(=Nc1c(Cl)cc(C(F)(F)F)cc1Cl)C(F)(F)C(F)(F)F [present compound 4, N-(2,6-dichloro-4-trifluoromethylphenyl)-2,2,3,3,3-pentafluoropropionamidine]	100	100	100			
NC(=Nc1c(Cl)cc(C(F)(F)F)cc1Cl)C(F)(F)Cl [present compound 5, 2-Chloro-N-(2,6-dichloro-4-trifluoromethylphenyl)-2,2-difluoroacetamidine]	100	100	100			
NC(=Nc1c([N+](=O)[O-])cc(C(F)(F)F)cc1[N+](=O)[O-])C(F)(F)C(F)(F)F [present compound 6, N-(2,6-Dinitro-4-trifluoromethylphenyl)-2,2,3,3,3-pentafluoropropionamidine]	100	100	100			
NC(=Nc1c(Cl)cc(C(F)(F)F)cc1Cl)C(F)F [present compound 7, N-(2,6-Dichloro-4-trifluoromethylphenyl)-2,2-difluoroacetamidine]	100	100				
NC(=Nc1c(Cl)cc(C(F)(F)F)cc1[N+](=O)[O-])C(F)(F)C(F)(F)F [present compound 8, N-(2-Chloro-6-nitro-4-trifluoromethylphenyl)-2,2,3,3,3-pentafluoropropionamidine]	100	100	100			
NC(=Nc1c(F)cc(C(F)(F)F)cc1F)C(F)(F)C(F)(F)F [present compound 9, N-(2,6-Difluoro-4-trifluoromethylphenyl)-2,2,3,3,3-pentafluoropropionamidine]	100	100	100			
NC(=Nc1c(Cl)cc(C(F)(F)F)cc1Br)C(F)(F)C(F)(F)F [present compound 10, N-(2-Bromo-6-chloro-4-trifluoromethylphenyl)-2,2,3,3,3-pentafluoropropionamidine]	100	100	100			
NC(=Nc1c(Cl)cc(C(F)(F)F)cc1Cl)C(F)(F)C(F)(F)C(F)(F)F [present compound 11, N-(2,6-Dichloro-4-trifluoromethylphenyl)-2,2,3,3,4,4,4-heptafluorobutyramidine]				100	100	100
NC(=Nc1c(Cl)cc(C(F)(F)F)cc1Cl)C(Cl)Cl [present compound 12, 2,2-Dichloro-N-(2,6-dichloro-4-trifluoromethylphenyl)acetamidine]	100	100	100			
NC(=Nc1c(F)cc(C(F)(F)F)cc1Cl)C(F)(F)F [present compound 13, N-(2-Chloro-6-fluoro-4-trifluoromethylphenyl)-2,2,2-trifluoroacetamidine]	100	100	100			
N#Cc1cc(C(F)(F)F)cc(Cl)c1N=C(N)C(F)(F)C(F)(F)F [present compound 14, N-(2-Chloro-6-cyano-4-trifluoromethylphenyl)-2,2,3,3,3-pentafluoropropionamidine]	100	100	100			
Cc1cc(C(F)(F)F)cc(Cl)c1N=C(N)C(F)(F)C(F)(F)F [present compound 15, N-(2-Chloro-6-methyl-4-trifluoromethylphenyl)-2,2,3,3,3-pentafluoropropionamidine]	100	100	100			
NC(=Nc1c(Br)cc(OC(F)(F)F)cc1Br)C(F)(F)C(F)(F)F [present compound 16, N-(2,6-Dibromo-4-trifluoromethoxyphenyl)-2,2,3,3,3-pentafluoropropionamidine]	100	100	100			
NC(=Nc1c(Br)cc(C(F)(F)F)cc1Br)C(F)(F)C(F)(F)F [present compound 17, N-(2,6-Dibromo-4-trifluoromethylphenyl)-2,2,3,3,3-pentafluoropropionamidine]	100	100	100			
NC(=Nc1c(Cl)cc(OC(F)(F)F)cc1Cl)C(F)(F)C(F)(F)F [present compound 18, N-(2,6-Dichloro-4-trifluoromethoxyphenyl)-2,2,3,3,3-pentafluoropropionamidine]	100	100	100			
NC(=Nc1c(F)cc(C(F)(F)F)cc1Cl)C(F)(F)C(F)(F)F [present compound 19, N-(2-Chloro-6-fluoro-4-trifluoromethylphenyl)-2,2,3,3,3-pentafluoropropionamidine]	100	100	100			
NC(=Nc1c(Cl)cc(C(F)(F)F)cc1Cl)C(F)(F)C(F)(F)C(F)(F)C(F)(F)F [present compound 30, N-(2,6-Dichloro-4-trifluoromethylphenyl)-2,2,3,3,4,4,5,5,5-nonafluoropentanamidine]				100		100
NC(=Nc1c(Cl)cc(C(F)(F)F)cc1Cl)C(F)(F)C(F)(F)C(F)(F)C(F)(F)C(F)(F)F [present compound 31, N-(2,6-Dichloro-4-trifluoromethylphenyl)-2,2,3,3,4,4,5,5,6,6,6-undecafluorohexanamidine]						100
NC(=Nc1c([N+](=O)[O-])cc(C(F)(F)F)cc1[N+](=O)[O-])C(F)(F)F [present compound 33, N-(2,6-Dinitro-4-trifluoromethylphenyl)-2,2,2-trifluoroacetamidine]	100	100				
NC(=Nc1c([N+](=O)[O-])cc(C(F)(F)C(F)(F)C(F)(F)F)cc1[N+](=O)[O-])C(F)(F)C(F)(F)C(F)(F)F [present compound 48, N-(2,6-Dinitro-4-heptafluoropropylphenyl)-2,2,3,3,4,4,4-heptafluorobutyramidine]			100			
NC(=Nc1c([N+](=O)[O-])cc(C(F)(F)C(F)(F)C(F)(F)F)cc1[N+](=O)[O-])C(F)(F)F [present compound 49, N-(2,6-Dinitro-4-heptafluoropropylphenyl)-2,2,2-trifluoroacetamidine]	100		100			
NC(=Nc1c([N+](=O)[O-])cc(C(F)(C(F)(F)F)C(F)(F)F)cc1[N+](=O)[O-])C(F)(F)C(F)(F)C(F)(F)F [present compound 50, N-{2,6-Dinitro-4-(1,2,2,2-tetrafluoro-1-trifluoromethylethyl)phenyl}-2,2,3,3,4,4,4-heptafluorobutyramidine]	100		100			
CN(C)C(=Nc1c(Cl)cc(C(F)(F)F)cc1Cl)C(F)(F)F [present compound 52, N′-(2,6-dichloro-4-trifluoromethylphenyl)-2,2,2-trifluoro-N,N-dimethylacetamidine]	100	100				
CCCN(CCC)C(=Nc1c(Cl)cc(C(F)(F)F)cc1Cl)C(F)(F)F [present compound 56, N′-(2,6-dichloro-4-trifluoromethylphenyl)-2,2,2-trifluoro-N,N-dipropylacetamidine]	100					
CCN(CC)C(=Nc1c(Cl)cc(C(F)(F)F)cc1Cl)C(F)(F)F [present compound 57, N′-(2,6-Dichloro-4-trifluoromethylphenyl)-N,N-diethyl-2,2,2-trifluoroacetamidine]	100		100			
CCNC(=Nc1c(Cl)cc(C(F)(F)F)cc1Cl)C(Cl)Cl [present compound 58, N′-(2,6-Dichloro-4-trifluoromethylphenyl)-2,2-dichloro-N-ethylacetamidine]	100		100			
CCNC(=Nc1c([N+](=O)[O-])cc(C(F)(F)F)cc1[N+](=O)[O-])C(Cl)Cl [present compound 59, 2,2-Dichloro-N′-(2,6-dinitro-4-trifluoromethylphenyl)-N-ethylacetamidine]	100		100			
